Measurements as given in patent US4622387A, “8-methionine calcitonin” (Armour Pharmaceutical Co., priority 1985, dated 1986).
Where a SMILES comes first, the peptide text is derived from it. Bridges are numbered along the chain shown (N, C = ends).

Tests used:
[1] = test system: serum calcium concentration
Procedure: Biological Assay Of Calcitonin Analogs In Vivo
The biological potency of [8-methionine]salmon calcitonin was determined by comparing the reduction of serum calcium concentration which followed administration by graded doses of [Met^8 ]SCT and synthetic salmon calcitonin standard. Rats were divided into four groups of seven animals, and each group was assigned at random to a dose of standard or test solution. Low and high doses were chosen from the linear portion of the dose-response curve. For the salmon calcitonin standard, the values were 0.7 and 2.1 mcg. peptide/100 g. body weight (BW). This dose approximates 3 and 9 MU/100 g. BW. Peptides were given by subcutaneous injection (0.2 ml/100 g. BW) and blood was withdrawn 1 hour later for serum calcium determination. Sera are processed and analyzed within two hours of collection. Results were analyzed within two hours of collection.

[2] = test system: serum calcium (hypocalcemic potency); settings: Monikawa et al., Experientia 32(9), 1104-1106 (1976); cited from earlier work

Row | Compound | hypocalcemic potency [2] | further results
1 | CSCC[C@H](NC(=O)[C@@H]1CSSC[C@H](N)C(=O)N[C@@H](CO)C(=O)N[C@@H](CC(N)=O)C(=O)N[C@@H](CC(C)C)C(=O)N[C@@H](CO)C(=O)N[C@@H]([C@@H](C)O)C(=O)N1)C(=O)N[C@@H](CC(C)C)C(=O)NCC(=O)N[C@@H](CCCCN)C(=O)N[C@@H](CC(C)C)C(=O)N[C@@H](CO)C(=O)N[C@@H](CCC(N)=O)C(=O)N[C@@H](CCC(=O)O)C(=O)N[C@@H](CC(C)C)C(=O)N[C@@H](Cc1c[nH]cn1)C(=O)N[C@@H](CCCCN)C(=O)N[C@@H](CC(C)C)C(=O)N[C@@H](CCC(N)=O)C(=O)N[C@H](C(=O)N[C@@H](Cc1ccc(O)cc1)C(=O)N1CCC[C@H]1C(=O)N[C@@H](CCCNC(=N)N)C(=O)N[C@H](C(=O)N[C@@H](CC(N)=O)C(=O)N[C@H](C(=O)NCC(=O)N[C@@H](CO)C(=O)NCC(=O)N[C@H](C(=O)N1CCC[C@H]1C(N)=O)[C@@H](C)O)[C@@H](C)O)[C@@H](C)O)[C@@H](C)O [[Met^8]SCT, [8-methionine]salmon calcitonin] (H-CSNLSTCMLGKLSQELHKLQTYPRTNTGSGTP-NH2; disulfide 1-7) |  | biological potency ([1]; rat, in vivo, sc): 5500 IU/mg
2 | CC(C)C[C@H](NC(=O)[C@H](CCCCN)NC(=O)CNC(=O)[C@H](CC(C)C)NC(=O)[C@@H](NC(=O)[C@@H]1CSSC[C@H](N)C(=O)N[C@@H](CO)C(=O)N[C@@H](CC(N)=O)C(=O)N[C@@H](CC(C)C)C(=O)N[C@@H](CO)C(=O)N[C@@H]([C@@H](C)O)C(=O)N1)C(C)C)C(=O)N[C@@H](CO)C(=O)N[C@@H](CCC(N)=O)C(=O)N[C@@H](CCC(=O)O)C(=O)N[C@@H](CC(C)C)C(=O)N[C@@H](Cc1c[nH]cn1)C(=O)N[C@@H](CCCCN)C(=O)N[C@@H](CC(C)C)C(=O)N[C@@H](CCC(N)=O)C(=O)N[C@H](C(=O)N[C@@H](Cc1ccc(O)cc1)C(=O)N1CCC[C@H]1C(=O)N[C@@H](CCCNC(=N)N)C(=O)N[C@H](C(=O)N[C@@H](CC(N)=O)C(=O)N[C@H](C(=O)NCC(=O)N[C@@H](CO)C(=O)NCC(=O)N[C@H](C(=O)N1CCC[C@H]1C(N)=O)[C@@H](C)O)[C@@H](C)O)[C@@H](C)O)[C@@H](C)O [standard salmon calcitonin, Salmon calcitonin] |  | potency content of the standard ([1]; standard salmon calcitonin, independently determined): greater than 4,000 IU/mg
3 | (1,7-α-L-aminosuberic acid)eel calcitonin | about 3400 Iu/mg | 
4 | eel calcitonin [synthetic eel calcitonin] | around 4300 Iu/mg | 
